These results are taken from patent US5492929A, “Condensed heterocyclic compounds useful for inhibiting acyl-CoA” (Takeda Chemical Industries, Ltd., priority 1992, dated 1996).

For test [1], the target named is T1, Acyl-CoA:cholesterol acyltransferase (ACAT) (Rattus norvegicus, UniProt Q7TQM4).
T1 construct: prepared from the microsomal fraction of mucosal cells from the small intestines of rats; from tissue; host or cells: microsomal fraction of small-intestinal mucosal cells, fasted 6-week-old male Sprague-Dawley rats
T1 sequence (Q7TQM4 1-524): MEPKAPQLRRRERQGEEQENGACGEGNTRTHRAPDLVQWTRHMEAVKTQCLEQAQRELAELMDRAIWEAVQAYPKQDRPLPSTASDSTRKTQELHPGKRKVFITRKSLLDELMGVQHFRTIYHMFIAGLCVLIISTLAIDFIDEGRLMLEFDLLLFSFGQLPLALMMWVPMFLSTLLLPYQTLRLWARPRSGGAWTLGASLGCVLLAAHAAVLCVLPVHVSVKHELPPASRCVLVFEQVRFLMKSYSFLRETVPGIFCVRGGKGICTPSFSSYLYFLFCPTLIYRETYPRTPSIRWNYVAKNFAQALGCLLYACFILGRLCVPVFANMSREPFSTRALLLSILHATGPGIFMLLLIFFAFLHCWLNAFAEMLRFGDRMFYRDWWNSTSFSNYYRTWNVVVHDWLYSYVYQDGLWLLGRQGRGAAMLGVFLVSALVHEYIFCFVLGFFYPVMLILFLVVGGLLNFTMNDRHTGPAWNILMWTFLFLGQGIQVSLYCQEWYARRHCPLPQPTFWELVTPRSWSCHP
In words: ACAT inhibitory action: labeled cholesterol ester formation from [1-14C]oleoyl-CoA and endogenous cholesterol, small-intestinal mucosal microsomal enzyme. It is filed as biochemical, rat (Sprague-Dawley). As to conditions: 10^-6 M; read-out: ACAT inhibitory rate (%). As to the method: In accordance with the method disclosed by Heider et al. on Journal of Lipid Research, 24, p.1127 (1983), an enzyme sample ACAT was prepared from the microsomal fraction of mucosal cells from the small intestines of rats (6-week old male Sprague-Dawleys) fasted for 20 hours.
The ACAT activity was determined by, in accordance with the method disclosed by Helgerud et al. on Journal of Lipid Research 22, p.271 (1981), measuring the amount of labeled cholesterol ester from [1-^14 C]oleoyl-CoA and endogenous cholesterol.
(1) In Table 2, the labeled cholesterol ester formation inhibitory rate (%) determined when supplemented with 10^-6 M of a test compound (a representative one of the compounds obtained in the following Examples 1 to 24) is shown as the index of ACAT inhibitory activity.

In test [2] the test system is hypercholesterolemic ICR mice. In words: Hypocholesterolemic (cholesterol-lowering) activity in mice fed a high cholesterol-cholic acid diet. It is filed as in vivo, mouse (ICR). As to conditions: serum, vs control. As for the experimental part: Groups of 6 ICR mice (2 subgroups of 3 mice) were made hypercholesterolemic by being fed a high cholesterol-cholic acid diet for 7 days and administered with test compounds orally on the last two days. One-half of the total dose was given on day 6 followed by the other half on day 7. After fasting overnight (16 hours after the last dose), the animals were sacrificed and sera were collected together for the each subgroup for measuring the levels of cholesterol and heparin precipitating lipoproteins (HPL). Both cholesterol and HPL levels were measured with autoanalyzer by the enzymatic CHOD-PAP method for the former and by the turbidimetric method of Shurr et. al. [in C. E. Dau ed. Atherosclerosis Drug Discovery, Plenum Publishing, New York, pp.215-229 & 231-249, 1976.] for the latter.

Test [3] addresses T1, Acyl-CoA:cholesterol acyltransferase (ACAT). In words: ACAT inhibitory action: labeled cholesterol ester formation from [1-14C]oleoyl-CoA and endogenous cholesterol, small-intestinal mucosal microsomal enzyme. It is filed as biochemical, rat (Sprague-Dawley). As to conditions: 10^-8 M; read-out: ACAT inhibitory rate (%) (in parentheses).
[4] abbreviates: 30 mg/kg po (total dose, halves on day 6 and 7).
The mark [5] stands for this setting: 1 mg/kg po (total dose, halves on day 6 and 7).
[6] abbreviates: 10 mg/kg po (total dose, halves on day 6 and 7).

The structures appear in SMILES notation.

Consider `Cc1ccccc1-c1c(CC(=O)Nc2c(C(C)C)cccc2C(C)C)oc2ccc(Cl)cc12` [Example 1, N-[2,6-Bis(1-methylethyl)phenyl]-5-chloro-3-(2-methylphenyl)-2-benzofuranacetamide], for which the inhibition at 1 µM in test [1] stood at 99.2%. In test [2] (setting [4]), the “Reduction % HPL (heparin precipitating lipoproteins)” value (“Reduction % HPL” for short) is recorded as 27% and the Reduction % cholesterol is listed as 32%. For the same compound, the inhibition at 0.01 µM in test [3] amounted to 93.7%. With `CCOc1cccc(OCC)c1NC(=O)Cc1oc2ccc(Cl)cc2c1-c1ccccc1C` [Example 16, 5-Chloro-N-(2,6-diethoxyphenyl)-3-(2-methylphenyl)-2-benzofuranacetamide], the inhibition at 1 µM in test [1] is 98.1%. Also, the inhibition at 0.01 µM in test [3] came out at 50.3%. Take `Cc1cc(C)c(NC(=O)Cc2oc3ccc(Cl)cc3c2-c2ccccc2C)c(C)c1` [Example 3, 5-Chloro-3-(2-methylphenyl)-N-(2,4,6-trimethylphenyl)-2-benzofuranacetamide]: the inhibition at 1 µM in test [1] amounted to 90.8%. In the case of `Cc1ccccc1-c1c(NC(=O)Nc2c(F)cc(F)cc2F)oc2ccc(Cl)cc12` [Example 18, N-[5-Chloro-3-(2-methylphenyl)-2-benzofuryl]-N'-(2,4,6-trifluorophenyl)urea], the inhibition at 1 µM in test [1] came out at 90.1%. Take `Cc1ccccc1-c1c(NC(=O)Nc2c(C(C)C)cccc2C(C)C)oc2ccc(Cl)cc12` [Example 11, N-[2,6-Bis(1-methylethyl)phenyl]-N'-[5-chloro-3-(2-methylphenyl)-2-benzofuryl]urea]: the inhibition at 1 µM in test [1] came to 99.1%. In test [2] (setting [5]), the “Reduction % HPL” value was determined as 27% and the Reduction % cholesterol is reported as 28%. Besides, in test [2] (setting [6]), the “Reduction % HPL” value was 38% and the Reduction % cholesterol is on record as 31%. For the same compound, in test [3], the inhibition at 0.01 µM is 92.2%. Take `Cc1ccccc1-c1c(CC(=O)Nc2c(C(C)C)cccc2C(C)C)n(C)c2ccc(Cl)cc12` [Example 7, N-[2,6-Bis(1-methylethyl)phenyl]-5-chloro-1-methyl-3-(2-methylphenyl)-2-indoleacetamide]: the inhibition at 1 µM in test [1] stood at 92.3%.

Turning to `Cc1ccccc1-c1c(CC(=O)Nc2c(F)cc(F)cc2F)oc2ccc(Cl)cc12` [Example 17, 5-Chloro-3-(2-methylphenyl)-N-(2,4,6-trifluorophenyl)-2-benzofuranacetamide], the inhibition at 1 µM in test [1] turned out to be 92.9%.

As for `CCOc1cccc(OCC)c1NC(=O)Nc1oc2ccc(Cl)cc2c1-c1ccccc1C` [Example 20, [5-Chloro-3-(2-methylphenyl)-2-benzofuryl]-N'-(2,6-diethoxyphenyl)urea], the inhibition at 1 µM in test [1] is 99.4%. Moreover, in test [3], the inhibition at 0.01 µM is 39.9%. The matching figures for `COc1cccc(OC)c1NC(=O)Nc1oc2ccc(Cl)cc2c1-c1ccccc1C` [Example 19, N-[5-Chloro-3-(2-methylphenyl)-2-benzofuryl]-N'-(2,6-dimethoxyphenyl)urea]: 99% and 28.8%. On to `COc1cccc(OC)c1NC(=O)Cc1oc2ccc(Cl)cc2c1-c1ccccc1` [Example 5, 5-Chloro-N-(2,6-dimethoxyphenyl)-3-phenyl-2-benzofuran acetamide], for which the inhibition at 1 µM in test [1] was 93.2%. As for `COc1cccc(OC)c1NC(=O)Cc1c(-c2ccccc2C)c2cc(Cl)ccc2n1C` [Example 8, 5-Chloro-N-(2,6-dimethoxyphenyl)-1-methyl-3-(2-methylphenyl)-2-indoleacetamide], in test [1], the inhibition at 1 µM came to 91.2%. In the case of `COc1cccc(OC)c1NC(=O)Cc1oc2ccc(Cl)cc2c1-c1ccccc1C` [Example 2, 5-Chloro-N-(2,6-dimethoxyphenyl)-3-(2-methylphenyl)-2-benzofuranacetamide], the inhibition at 1 µM in test [1] came out at 98.8%. As to `CC(C)c1cccc(C(C)C)c1NC(=O)Cc1oc2ccc(Cl)cc2c1-c1ccccc1` [Example 4, N-[2,6-Bis(1-methylethyl)phenyl]-5-chloro-3-phenyl-2-benzofuranacetamide], the inhibition at 1 µM in test [1] was determined as 99%.
